ChEMBL document CHEMBL4184304, “Design and synthesis of novel and potent GPR119 agonists with a spirocyclic structure” (Bioorg Med Chem Lett, 2018)
pEC50, pIC50: −log10 of the molar value. Values after ≈ are worked out from the molar mass of the structure shown.

What was measured:
[1] = target: T1, Glucose-dependent insulinotropic receptor (Homo sapiens, UniProt Q8TDV5); experiment: Agonist activity at human GPR119 expressed in HEK293 cells assessed as increase in intracellular cAMP level after 30 mins; format: functional, cell-based
T1 sequence (Q8TDV5 whole entry): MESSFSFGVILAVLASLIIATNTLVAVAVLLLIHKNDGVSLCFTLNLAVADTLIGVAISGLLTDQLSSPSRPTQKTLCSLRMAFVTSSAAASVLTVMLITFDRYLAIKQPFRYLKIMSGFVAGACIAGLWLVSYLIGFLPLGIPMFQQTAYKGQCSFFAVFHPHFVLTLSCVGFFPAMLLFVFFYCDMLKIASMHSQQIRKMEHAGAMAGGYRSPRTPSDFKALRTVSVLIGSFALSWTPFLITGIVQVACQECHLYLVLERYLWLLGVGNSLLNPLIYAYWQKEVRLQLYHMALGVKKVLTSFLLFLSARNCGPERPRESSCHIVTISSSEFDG

[2] = target: T2, Glucose-dependent insulinotropic receptor (Homo sapiens) (UniProt Q8TDV5); experiment: Agonist activity at human GPR119 expressed in HEK293 cells assessed as increase in intracellular cAMP level after 30 mins relative to oleoylethanolamide; format: functional, cell-based
T2 sequence (whole entry): T1 sequence (Q8TDV5 whole entry)

Rattus norvegicus [3] = experiment: Antidiabetic activity in Sprague-Dawley rat assessed as glucose concentration-dependent insulin secretion by measuring reduction in blood glucose AUC at 1 mg/kg, po pretreated for 30 mins followed by glucose-challenge measured up to 120 mins by ipGTT relative to control; format: functional; parameters: scale not given: the % may be the effect or the level left
Cytochrome P450 2C9 = Cytochrome P450 2C9 (Homo sapiens, UniProt P11712); experiment: Inhibition of CYP2C9 (unknown origin); format: ADME
[4] = Solubility in fed state simulated intestinal fluid; format: physicochemical
Cytochrome P450 1A2 = target: T3, Cytochrome P450 1A2 (Homo sapiens, UniProt P05177); experiment: Inhibition of CYP1A2 (unknown origin); format: ADME
T3 sequence (P05177 whole entry): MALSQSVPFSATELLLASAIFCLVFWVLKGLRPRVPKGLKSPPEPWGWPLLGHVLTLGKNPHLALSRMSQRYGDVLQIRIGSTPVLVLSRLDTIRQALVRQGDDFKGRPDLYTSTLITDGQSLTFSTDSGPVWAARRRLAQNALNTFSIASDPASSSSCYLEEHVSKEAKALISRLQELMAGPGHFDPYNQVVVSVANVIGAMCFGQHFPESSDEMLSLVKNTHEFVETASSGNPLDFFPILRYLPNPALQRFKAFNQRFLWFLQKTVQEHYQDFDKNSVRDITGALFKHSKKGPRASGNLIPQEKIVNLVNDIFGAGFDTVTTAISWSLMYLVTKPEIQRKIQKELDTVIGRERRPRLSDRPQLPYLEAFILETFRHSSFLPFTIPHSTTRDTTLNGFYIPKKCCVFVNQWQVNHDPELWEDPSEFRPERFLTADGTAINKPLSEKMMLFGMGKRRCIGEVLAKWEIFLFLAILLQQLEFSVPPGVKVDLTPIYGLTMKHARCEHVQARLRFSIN

Cytochrome P450 2C19 = Cytochrome P450 2C19 (Homo sapiens, UniProt P33261); experiment: Inhibition of CYP2C19 (unknown origin); format: ADME
Cytochrome P450 2C8 = target: T4, Cytochrome P450 2C8 (Homo sapiens, UniProt P10632); experiment: Inhibition of CYP2C8 (unknown origin); format: ADME
T4 sequence (P10632 whole entry): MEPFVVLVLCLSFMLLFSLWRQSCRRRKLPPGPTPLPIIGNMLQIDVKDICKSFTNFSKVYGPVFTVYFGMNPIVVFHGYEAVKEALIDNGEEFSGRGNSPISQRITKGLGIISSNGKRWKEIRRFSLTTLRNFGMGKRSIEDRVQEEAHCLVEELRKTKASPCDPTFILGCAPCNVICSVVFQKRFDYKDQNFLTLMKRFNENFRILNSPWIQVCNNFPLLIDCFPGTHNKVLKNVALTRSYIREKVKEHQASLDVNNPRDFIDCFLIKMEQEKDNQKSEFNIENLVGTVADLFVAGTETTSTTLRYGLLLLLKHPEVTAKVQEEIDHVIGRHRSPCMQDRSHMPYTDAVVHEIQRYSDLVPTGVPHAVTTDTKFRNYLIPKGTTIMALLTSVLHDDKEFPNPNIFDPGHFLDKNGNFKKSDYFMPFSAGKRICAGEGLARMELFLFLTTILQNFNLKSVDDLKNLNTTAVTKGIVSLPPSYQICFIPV

Rattus norvegicus [5] = experiment: Antidiabetic activity in Sprague-Dawley rat assessed as glucose concentration-dependent insulin secretion by measuring reduction in blood glucose AUC at 0.3 mg/kg, po pretreated for 30 mins followed by glucose-challenge measured up to 120 mins by ipGTT relative to control; format: functional; parameters: scale not given: the % may be the effect or the level left
Cytochrome P450 3A4 = Cytochrome P450 3A4 (Homo sapiens, UniProt P08684); experiment: Inhibition of CYP3A4 (unknown origin); format: ADME
Cytochrome P450 2D6 = Cytochrome P450 2D6 (Homo sapiens, UniProt P10635); experiment: Inhibition of CYP2D6 (unknown origin); format: ADME
Cytochrome P450 2D6, sequence (P10635 whole entry): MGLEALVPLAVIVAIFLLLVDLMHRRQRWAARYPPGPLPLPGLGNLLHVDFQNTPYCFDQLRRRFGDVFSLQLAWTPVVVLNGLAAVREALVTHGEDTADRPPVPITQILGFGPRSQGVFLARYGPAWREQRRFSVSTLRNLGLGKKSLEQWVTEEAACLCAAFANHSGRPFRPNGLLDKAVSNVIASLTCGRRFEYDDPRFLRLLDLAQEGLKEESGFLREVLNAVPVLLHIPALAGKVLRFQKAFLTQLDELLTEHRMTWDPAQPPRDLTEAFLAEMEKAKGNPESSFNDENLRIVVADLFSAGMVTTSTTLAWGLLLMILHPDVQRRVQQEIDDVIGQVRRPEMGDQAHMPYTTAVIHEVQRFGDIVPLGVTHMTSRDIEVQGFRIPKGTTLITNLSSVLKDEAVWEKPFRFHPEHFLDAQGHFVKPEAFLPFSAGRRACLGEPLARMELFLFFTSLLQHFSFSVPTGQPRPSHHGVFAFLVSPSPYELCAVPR

Cytochrome P450 2C19, sequence (P33261 whole entry): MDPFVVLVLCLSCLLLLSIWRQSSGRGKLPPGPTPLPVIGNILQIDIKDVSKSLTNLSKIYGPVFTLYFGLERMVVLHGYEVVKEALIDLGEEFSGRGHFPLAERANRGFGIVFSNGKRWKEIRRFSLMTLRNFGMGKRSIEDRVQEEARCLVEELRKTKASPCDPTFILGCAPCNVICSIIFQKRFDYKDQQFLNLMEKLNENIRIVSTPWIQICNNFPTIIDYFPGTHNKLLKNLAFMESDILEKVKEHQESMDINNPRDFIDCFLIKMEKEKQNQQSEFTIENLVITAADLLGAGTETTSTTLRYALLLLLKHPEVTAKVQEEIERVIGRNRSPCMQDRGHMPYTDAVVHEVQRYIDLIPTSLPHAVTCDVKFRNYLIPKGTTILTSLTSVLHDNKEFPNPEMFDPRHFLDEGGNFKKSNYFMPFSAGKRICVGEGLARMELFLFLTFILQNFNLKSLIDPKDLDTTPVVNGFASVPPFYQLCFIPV
Cytochrome P450 2C9, sequence (P11712 whole entry): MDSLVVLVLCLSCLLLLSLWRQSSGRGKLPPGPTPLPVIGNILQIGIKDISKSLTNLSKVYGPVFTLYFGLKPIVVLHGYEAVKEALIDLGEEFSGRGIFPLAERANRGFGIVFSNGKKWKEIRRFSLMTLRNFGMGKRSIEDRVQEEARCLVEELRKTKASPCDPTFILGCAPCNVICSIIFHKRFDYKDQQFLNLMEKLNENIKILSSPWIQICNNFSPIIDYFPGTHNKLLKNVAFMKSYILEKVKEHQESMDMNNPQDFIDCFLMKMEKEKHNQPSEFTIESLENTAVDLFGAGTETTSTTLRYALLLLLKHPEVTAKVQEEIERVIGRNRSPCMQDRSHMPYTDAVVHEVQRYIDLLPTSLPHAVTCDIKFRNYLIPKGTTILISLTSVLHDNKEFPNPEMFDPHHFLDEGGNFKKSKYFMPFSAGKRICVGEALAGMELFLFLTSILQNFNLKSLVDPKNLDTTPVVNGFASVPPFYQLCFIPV
Cytochrome P450 3A4, sequence (P08684 whole entry): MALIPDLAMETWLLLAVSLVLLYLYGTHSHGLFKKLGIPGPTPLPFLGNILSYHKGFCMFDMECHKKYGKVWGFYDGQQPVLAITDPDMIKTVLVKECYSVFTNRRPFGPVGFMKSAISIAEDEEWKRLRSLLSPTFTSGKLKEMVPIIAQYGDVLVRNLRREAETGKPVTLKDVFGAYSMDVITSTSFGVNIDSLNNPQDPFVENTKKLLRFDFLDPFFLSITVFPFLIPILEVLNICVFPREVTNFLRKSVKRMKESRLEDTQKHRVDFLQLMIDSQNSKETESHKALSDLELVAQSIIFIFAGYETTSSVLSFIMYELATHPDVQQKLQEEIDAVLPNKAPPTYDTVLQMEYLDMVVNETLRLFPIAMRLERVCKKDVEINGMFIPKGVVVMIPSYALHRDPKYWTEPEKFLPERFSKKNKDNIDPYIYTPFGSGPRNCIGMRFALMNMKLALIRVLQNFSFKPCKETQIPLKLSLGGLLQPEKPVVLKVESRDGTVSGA

| SMILES | pEC50 [1] | Activity [2] | other results |
| --- | --- | --- | --- |
| CC(C)(C)OC(=O)N1CCC(CCCCOc2ccc(S(C)(=O)=O)cc2)CC1 | 6.68 | 100% |  |
| CN(C)C(=O)c1ccc(OCCCCC[C@H]2CC[C@@]3(CC2)CC(C)(C)CO3)cc1 | 8.40 | 99% |  |
| CN(C)C(=O)c1ccc(OCCCCC[C@H]2CC[C@]3(CCCCO3)CC2)cc1 | 7.44 | 96% |  |
| CN(C)C(=O)c1ccc(OCCCCCC2CCC3(CCCCC3)CC2)cc1 | 7.57 | 91% |  |
| CN(C)C(=O)c1ccc(OCCCCC[C@H]2CC[C@@]3(CCCO3)CC2)cc1 | 6.88 | 89% |  |
| CN(C)C(=O)c1ccc(OCCCCC[C@H]2CC[C@]3(CC2)COC(C)(C)C3)cc1 | 8.40 | 104% | Activity (Rattus norvegicus [3]): 33%; pIC50 (Cytochrome P450 2C9): < 5.00; solubility [4]: 442 µM (≈ 177 µg/mL); pIC50 (Cytochrome P450 1A2): < 5.00; pIC50 (Cytochrome P450 2C19): < 5.00; pIC50 (Cytochrome P450 2C8): < 5.00; Activity (Rattus norvegicus [5]): 14%; pIC50 (Cytochrome P450 3A4): < 5.00; pIC50 (Cytochrome P450 2D6): < 5.00 |
| CN(C)C(=O)c1ccc(OCCCCCC2CCN(C(=O)OC(C)(C)C)CC2)cc1 | 8.30 | 97% | solubility [4]: 74.2 µM (≈ 31.1 µg/mL) |
| CC(C)(C)OC(=O)N1CCC(CCCCCOc2ccc(S(C)(=O)=O)cc2)CC1 | 7.85 | 93% | solubility [4]: 15.9 µM (≈ 6.77 µg/mL) |
| CN(C)C(=O)c1ccc(OCCCCC[C@H]2CC[C@@]3(CCCCO3)CC2)cc1 | 7.68 | 96% |  |
| CN(C)C(=O)c1ccc(OCCCCC[C@H]2CC[C@]3(CCCO3)CC2)cc1 | 7.02 | 84% |  |
| CC(C)(C)OC(=O)N1CCC(CCCOc2ccc(S(C)(=O)=O)cc2)CC1 | 6.45 | 106% |  |
| CC(C)OC(=O)N1CCC(CCCCCOc2ccc(C(=O)N(C)C)cc2)CC1 | 8.00 | 102% | pIC50 (Cytochrome P450 2C9): > 5.00; solubility [4]: 222 µM (≈ 89.7 µg/mL); pIC50 (Cytochrome P450 2C19): > 5.00; pIC50 (Cytochrome P450 2C8): > 5.00 |
| CN(C)C(=O)c1ccc(OCCCCC[C@H]2CC[C@]3(CCC(C)(C)O3)CC2)cc1 | 6.29 | 64% |  |
| CN(C)C(=O)c1ccc(OCCCCC[C@H]2CC[C@@]3(CC2)CC(C)(C)CCO3)cc1 | 8.15 | 110% |  |
| CN(C)C(=O)c1ccc(OCCCCCC2CCC3(CC2)OCCO3)cc1 | 7.06 | 92% |  |
| CN(C)C(=O)c1ccc(OCCCCCC2CCC3(CC2)OCCCO3)cc1 | 7.54 | 96% |  |
| CC(C)(C)OC(=O)N1CCC(CCCCCCOc2ccc(S(C)(=O)=O)cc2)CC1 | 7.11 | 72% |  |
